Measured values: PMC9916969 (International Journal of Molecular Sciences, 2023)
Like-named read-outs stand apart in the source and are kept apart here.

Experiments:
β-amyloid (1–42) (Aβ42) = β-amyloid (1–42) (Aβ42) (Homo sapiens, UniProt P05067); experiment: Inhibition of Aβ42 self-aggregation (thioflavin T); format: biochemical; details: read-out: Inhibition of Aβ42 Self-Aggregation
Protocol: The inhibitory activity of tested hybrids against the self-aggregation of Aβ42 was determined in vitro using the thioflavin T (ThT) fluorimetric assay. According to [84], the ThT test is ideal for preliminary screening of inhibitors of Aβ42 self-aggregation, as it enables the quantitative testing of large numbers of compounds within a relatively short time.
The influence of the inhibitory effect of the test compounds toward Aβ42 self-aggregation was determined using the thioflavin T (ThT) fluorescence method with minor modifications. This assay is based on a specific interaction between the fluorescent dye thioflavin T that binds to the β-sheets of assembled amyloid fibrils leading to a significant increase in fluorescence signal. Therefore, the decrease in ThT fluorescence correlates with the ability of the studied compounds to inhibit the formation of amyloid aggregates.
One mg of lyophilized HFIP-pretreated Aβ42 from BACHEM (Bubendorf, Switzerland) was dissolved in DMSO to obtain a stable initial solution ([Aβ42] = 500 μM); then it was aliquoted and stored at −20 °C.
For the measurement of Aβ42 self-aggregation and amyloid fibril inhibition studies by the tested compounds, aliquots of 500 μM Aβ42 stock solution were diluted in 215 mM Na-phosphate buffer pH = 8.0 to a final concentration of 50 μM Aβ42. Then the samples were incubated for 24 h at 37 °C without stirring in the absence (base level of Aβ42 self-aggregation, control) or presence of the test compounds. Myricetin and propidium iodide were used as reference compounds (positive controls). All compounds were used in a concentration of 100 µM. To quantify Aβ42 fibril formation, after incubation, 5 μM ThT in 50 mM glycine-NaOH buffer pH 8.5 was added to the solutions to a final concentration of 4 μM ThT and the fluorescence was measured at 440 nm (excitation) and 485 nm (emission). Analyses were performed with a FLUOStar Optima microplate reader (LabTech, Ortenberg, Germany). The blanks consisted of 215 mM Na-phosphate buffer, pH = 8.0, 20% (v/v) DMSO or test compounds, respectively. Each assay was run in triplicate.

EeAChE PAS = molecular target: T1, EeAChE PAS (Electrophorus electricus, UniProt O42275); format: binding; details: compound 20 µM; EeAChE 7 µM; propidium iodide 8 µM
T1 construct: The enzyme was electric eel AChE (EeAChE type VI-S, lyophilized powder, Sigma-Aldrich); purchased Sigma-Aldrich type VI-S; host or cells: electric eel (tissue-derived)
From the text: This method is widely used as a screening approach to assess the potential ability of compounds to block AChE-induced β-amyloid aggregation. This is because when the compounds bind to the AChE PAS, they prevent the binding of β-amyloid, thereby inhibiting its aggregation.
The enzyme was electric eel AChE (EeAChE type VI-S, lyophilized powder, Sigma-Aldrich). We selected this source of AChE for consistency with our other reports and because of the purity, specific activity, and lower cost compared to human AChE.
Propidium iodide (final concentration 8 μM) was then added for a further 15 min incubation, and the fluorescence spectrum was taken (530 nm excitation and 600 nm emission) using a FLUOStar Optima microplate reader. The same concentration of propidium iodide in the Tris buffer was used as the blank. Triplicate determinations were recorded and the results were calculated via the following equation:% Displacement = 100 − (IFAChE+ Propidium + inhibitor/IFAChE + Propidium) × 100, where IFAChE + Propidium = fluorescence intensity of propidium iodide associated with AChE in the absence of the test compound (taken as 100%), and IFAChE + Propidium + inhibitor = fluorescence intensity of propidium iodide associated with AChE in the presence of the test compound.

in vitro = format: cell-based; details: mouse
Protocol: […]. Accordingly, in the present work, we paid special attention to the study of the cytotoxic activity of compounds on primary cultures of mouse hepatocytes using standard MTT methodology.
The cytotoxicity of the compounds was evaluated using a primary culture of mouse hepatocytes isolated at the Center for Biotechnology and Bioengineering, Ural Federal University, Ekaterinburg, Russia, according to the standard method. Cells were seeded in 96-well plates in the inoculum dose of 1 × 10^4 cells/mL and cultured for 24 h in Dulbecco’s Modified Eagle Medium (DMEM), with 1% (w/v) glutamine in the presence of 10% (v/v) fetal bovine serum and gentamicin (50 mg/L) at 37 °C, with a humidified atmosphere of 5% (v/v) CO2. Cell viability was assessed using the standard MTT assay. The compounds were dissolved in DMSO and then in a nutrient medium, after which they were added to the wells with cells at final concentrations of 10^−7, 10^−6, 10^−5, and 10^−4 M. Hepatocytes were exposed to test compounds for 24 h at 37 °C, 95% relative humidity and 5% (v/v) CO2 atmosphere. After incubation, the medium was replaced with 100 μL of fresh medium containing MTT (0.5 mg/mL). The plates were then incubated at 37°C in a CO2 incubator for 2 h. Then the medium with MTT was removed and DMSO was added to dissolve the formazan crystals.
The results of the MTT assay were evaluated on a Tecan Infinite M200 PRO (Tecan Austria GmbH, Grödig, Austria) plate spectrophotometer at 570 nm by comparing the optical density of a formazan solution in the assay and control wells. The cell viability was expressed as the percentage of untreated control. The results were obtained from three independent experiments performed in six replicates. The IC50 (μM) values were calculated by the AAT Bioquest-calculator: (https://www.aatbio.com/tools/ic50-calculator, accessed on 1 December 2022) and expressed as a mean ± standard error of the mean (SEM). Statistical analysis was carried out using Microsoft Excel 2007 (Microsoft Corporation, Redmond, WA, USA) and Statistica 2009 (Tulsa, OK, USA) programs.

human erythrocyte AChE = molecular target: T2, human erythrocyte AChE (Homo sapiens, UniProt P22303); experiment: biochemical; details: mean ± SEM, n = 3, read-out: Inhibitory activity against AChE, IC50
T2 construct: human erythrocyte AChE, equine serum BChE, and porcine liver CES were used; purchased Sigma-Aldrich; host or cells: human erythrocytes (tissue-derived)
From the text: (§1) Assessment of the esterase profile of new potential anti-AD molecules enables the estimation of both the primary pharmacological effects of the tested compounds—their inhibition of AChE and BChE—and their possible unwanted side effect—inhibition of CES, which hydrolyzes numerous ester-containing drugs. For the esterase profile evaluation, human erythrocyte AChE, equine serum BChE, and porcine liver CES were used. These sources of BChE and CES were employed because of their relatively low cost, high sequence identity to human enzymes, and the exploratory character of this work.
(§2) Chromophore absorbances were measured with a FLUOStar Optima microplate reader (BMG Labtech, Ortenberg, Germany). […] Initially, we used a single concentration of 20 µM for all compounds.

equine serum BChE = molecular target: T3, equine serum BChE (Equus caballus, UniProt P81908); experiment: biochemical; details: mean ± SEM, n = 3, read-out: Inhibitory activity against BChE, IC50
T3 construct: human erythrocyte AChE, equine serum BChE, and porcine liver CES were used; purchased Sigma-Aldrich; host or cells: equine serum (tissue-derived)
From the text: as §1, §2

FRAP assay = details: Trolox equivalents; 60 min, 37 °C; n.a. = not active
Protocol: The Ferric Reducing Antioxidant Power (FRAP) test involves reduction of the ferric 2,4,6-tripyridyl-s-triazine complex [Fe(TPTZ)2]^3+ to an intense-blue ferrous complex [Fe(TPTZ)2]^2+ [92], as previously reported. Results are given as Trolox Equivalents (TE).
The FRAP (ferric reducing antioxidant power) assay proposed by Benzie and Strain [92] was modified to be performed in 96-well microplates as described in detail in [53]. The FRAP reagent contained 2.5 mL of 10 mM TPTZ (2,4,6-tris(2-pyridyl)-s-triazine, Sigma-Aldrich) solution in 40 mM HCl, 2.5 mL of 20 mM FeCl3 (Sigma-Aldrich) in distilled water and 25 mL of 0.3 M acetate buffer (pH 3.6). Aliquots of 10 µL of the test compound dissolved in DMSO (0.5 mM) were placed in quadruplicate. Absorbance was measured at a wavelength of 593 nm after 60 min incubation at 37 °C. In each case, Trolox was used as a reference compound to obtain the standard curve. The AO activity was calculated with respect to the activity of Trolox and expressed as Trolox equivalents (TE)—the values calculated as the ratio of the concentrations of Trolox and the test compound resulting in the same effect on ferric reducing activity.

porcine liver CES = experiment: In vitro CES inhibition (4-NPA substrate); format: biochemical; details: compound 20 µM, n.a. = not active
From the text: as §1, §2

[1] = ABTS radical cation scavenging assay; design: key to ABTS^•+ Scavenging Activity, TEAC: TEAC: ratio of compound slope to Trolox slope (Trolox equivalents); details: 1 h incubation
Protocol: In the ABTS assay, the dark-green ABTS cation-radical (ABTS^•+) is quenched by interaction with AOs. The consequent decrease in absorbance is followed spectrophotometrically per the previously described method.
Radical scavenging activity of the compounds was assessed using the ABTS radical cation (ABTS^•+) decolorization assay with some modifications. ABTS (2,2′-azinobis-(3-ethylbenzothiazoline-6-sulfonic acid) was purchased from Tokyo Chemical Industry Co., Ltd. (Tokyo, Japan); potassium persulfate (dipotassium peroxodisulfate), Trolox (6-hydroxy-2,5,7,8-tetramethylchroman-2-carboxylic acid), and HPLC-grade ethanol and DMSO were obtained from Sigma-Aldrich (Saint Louis, MO, USA). Aqueous solutions were prepared using deionized water. All tested compounds were dissolved in DMSO.
The solution of cation radical ABTS^•+ was produced by incubation of an aqueous solution of 7 mM ABTS and 2.45 mM potassium persulfate solution in equal quantities for 12–16 h at room temperature in the dark. Radical scavenging capacity of the compounds was analyzed by mixing 10 μL of compound with 240 μL of ABTS^•+ working solution in ethanol (100 μM final concentration). The reaction was monitored for an hour at 30 °C with an interval of 10 min. Data are given for 1 h of incubation of compounds with ABTS^•+. The reduction in absorbance was measured spectrophotometrically at 734 nm using an xMark microplate UV/VIS spectrophotometer (Bio-Rad, Hercules, CA, USA). Ethanol blanks were run in each assay. Values were obtained from five replicates of each sample and three independent experiments.
The standard AO Trolox was used as a reference compound. AO capacity as Trolox equivalent (TEAC) values was determined as the ratio between the slopes obtained from the linear correlation of the ABTS radical absorbance with the concentrations of tested compounds and Trolox. Ascorbic acid was used as a positive control. […]. The compounds were tested in the concentration range of 0.5–100 µM.

[2] = Metal chelation by UV-Vis spectroscopy, Cu2+; details: ethanol, 25 °C; compound and metal 40 μM; difference spectra; two bands per compound
eqBChE = molecular target: T4, eqBChE (Equus caballus, UniProt P81908); experiment: Kinetic study of BChE inhibition (Lineweaver-Burk); format: biochemical; details: for αKi (non-competitive inhibition constant), eqBChE: mixed-type inhibition, mean ± SEM; for Ki: read-out: Ki (competitive inhibition constant), eqBChE
T4 construct: human erythrocyte AChE, equine serum BChE, and porcine liver CES were used; purchased Sigma-Aldrich; host or cells: equine serum (tissue-derived)
Protocol: Similar results were obtained for other tested compounds (Figures S61 and S62). The obtained values of inhibition constants (Ki = competitive component and αKi = non-competitive component) are shown in Table 2.
(§3) We assessed the mechanisms of AChE and BChE inhibition by performing a thorough analysis of enzyme kinetics. After a 5 min incubation at 25 °C (for temperature equilibration) with three increasing concentrations of inhibitor and six decreasing substrate concentrations, the residual enzyme activity was measured as described above for enzymatic assays.

AChE = molecular target: T5, AChE (Homo sapiens, UniProt P22303); experiment: Kinetic study of AChE inhibition (Lineweaver-Burk); format: biochemical; details: for αKi (non-competitive inhibition constant), AChE: mixed-type inhibition, mean ± SEM; for Ki: read-out: Ki (competitive inhibition constant), AChE
T5 construct: human erythrocyte AChE, equine serum BChE, and porcine liver CES were used; purchased Sigma-Aldrich; host or cells: human erythrocytes (tissue-derived)
Protocol: as §3

[3] = Aβ42 50 µM, compound 100 µM, 24 h, 37 °C, thioflavin T

β-amyloid (1–42) (Aβ42), sequence (P05067 672-713 limits assumed): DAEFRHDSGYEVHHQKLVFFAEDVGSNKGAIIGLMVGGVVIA
T5 sequence (P22303 32-617 isoform P22303-2 limits assumed): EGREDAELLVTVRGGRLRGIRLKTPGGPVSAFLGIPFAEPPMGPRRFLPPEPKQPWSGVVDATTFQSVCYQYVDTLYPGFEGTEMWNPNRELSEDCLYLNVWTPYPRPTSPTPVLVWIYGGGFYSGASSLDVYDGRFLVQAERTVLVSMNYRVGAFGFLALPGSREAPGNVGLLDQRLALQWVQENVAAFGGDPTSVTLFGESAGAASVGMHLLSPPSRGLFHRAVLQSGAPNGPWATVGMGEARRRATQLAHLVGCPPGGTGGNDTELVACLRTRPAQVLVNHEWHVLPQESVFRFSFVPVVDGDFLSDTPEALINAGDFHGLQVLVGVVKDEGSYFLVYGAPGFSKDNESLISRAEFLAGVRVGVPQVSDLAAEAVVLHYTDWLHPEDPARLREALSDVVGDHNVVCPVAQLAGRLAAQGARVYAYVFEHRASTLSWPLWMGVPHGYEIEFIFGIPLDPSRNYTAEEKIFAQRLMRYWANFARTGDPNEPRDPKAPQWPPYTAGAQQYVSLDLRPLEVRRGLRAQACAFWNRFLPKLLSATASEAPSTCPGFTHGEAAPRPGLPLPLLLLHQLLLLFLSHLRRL
T2 sequence (P22303 32-617 isoform P22303-2 limits assumed): as above
T1 sequence (O42275 24-633): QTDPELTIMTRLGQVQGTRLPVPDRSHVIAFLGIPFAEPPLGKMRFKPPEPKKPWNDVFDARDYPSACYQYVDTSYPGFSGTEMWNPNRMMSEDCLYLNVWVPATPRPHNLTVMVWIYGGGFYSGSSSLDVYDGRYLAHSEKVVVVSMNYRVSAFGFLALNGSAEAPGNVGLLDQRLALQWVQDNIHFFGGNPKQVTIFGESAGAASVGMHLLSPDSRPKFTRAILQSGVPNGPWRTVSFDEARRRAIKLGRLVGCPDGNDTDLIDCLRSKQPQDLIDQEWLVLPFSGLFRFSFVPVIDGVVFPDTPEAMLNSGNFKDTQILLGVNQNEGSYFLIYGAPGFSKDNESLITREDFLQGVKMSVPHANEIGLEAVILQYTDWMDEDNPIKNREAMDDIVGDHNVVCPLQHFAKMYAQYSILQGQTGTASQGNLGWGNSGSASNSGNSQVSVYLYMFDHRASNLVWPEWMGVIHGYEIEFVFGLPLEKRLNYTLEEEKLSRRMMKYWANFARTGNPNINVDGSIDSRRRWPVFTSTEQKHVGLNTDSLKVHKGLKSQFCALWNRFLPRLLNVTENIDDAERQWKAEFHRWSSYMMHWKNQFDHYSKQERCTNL
T4 sequence (P81908 whole entry): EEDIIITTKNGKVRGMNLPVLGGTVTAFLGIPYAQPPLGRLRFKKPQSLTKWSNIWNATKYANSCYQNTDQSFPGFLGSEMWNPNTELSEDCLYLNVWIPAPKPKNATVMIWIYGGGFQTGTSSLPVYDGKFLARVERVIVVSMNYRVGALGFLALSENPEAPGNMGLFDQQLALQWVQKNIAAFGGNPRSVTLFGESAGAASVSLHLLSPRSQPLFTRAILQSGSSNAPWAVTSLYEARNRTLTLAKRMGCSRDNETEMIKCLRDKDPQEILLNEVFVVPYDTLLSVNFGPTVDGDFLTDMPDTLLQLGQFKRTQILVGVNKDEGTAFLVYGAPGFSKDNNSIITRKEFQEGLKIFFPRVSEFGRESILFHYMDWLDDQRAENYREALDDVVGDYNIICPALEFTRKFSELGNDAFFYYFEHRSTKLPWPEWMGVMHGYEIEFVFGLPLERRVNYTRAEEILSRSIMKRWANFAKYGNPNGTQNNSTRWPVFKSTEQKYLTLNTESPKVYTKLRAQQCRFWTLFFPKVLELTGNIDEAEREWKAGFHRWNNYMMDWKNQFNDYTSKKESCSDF
T3 sequence (P81908 whole entry): as above

SMILES | inhibition at 100 µM (β-amyloid (1–42) (Aβ42); [3]) [%] | Propidium Displacement from EeAChE PAS (EeAChE PAS) [%] | IC50 at 24 h (in vitro) [nM] | IC50 (human erythrocyte AChE) [nM] | IC50 (equine serum BChE) [nM] | FRAP, TE (FRAP assay) | Inhibitory activity against CES, inhibition at 20 µM (porcine liver CES) [%] | IC50 ([1]; 50% reduction of ABTS radical cation) [nM] | ABTS^•+ Scavenging Activity, TEAC ([1]; Trolox equivalent, n.a. = not active) | Shift of Absorbance, Cu(II) [2] [nm] | αKi (non-competitive inhibition constant), eqBChE (eqBChE) [µM] | Ki (eqBChE) [nM] | αKi (non-competitive inhibition constant), AChE (AChE) [µM] | Ki (AChE) [nM] | inhibition at 100 µM (β-amyloid (1–42) (Aβ42)) [%]
COc1cc(F)c(F)cc1C(=O)NCCCCCCNc1c2c(nc3ccccc13)CCCC2 [8b] | 29.7 ± 2.3 | 13.8 ± 0.9 | 3950 ± 220 | 712 ± 67 | 70.2 ± 4.2 | 0.02 | 6.3 ± 0.9 | – | – | – | – | – | – | – | –
Oc1ccccc1/C=N/CCCCCCNc1c2c(nc3ccccc13)CCCC2 [10b] | 67.9 ± 5.4 | 18.2 ± 1.4 | – | 103 ± 6 | 35.4 ± 1.7 | 0.03 | 17.9 ± 0.8 | 31800 ± 1600 | 0.47 ± 0.04 | 255 | – | – | – | – | –
COc1ccccc1C(=O)NCCCCCCNc1c2c(nc3ccccc13)CCCC2 [6b] | 30.8 ± 2.1 | 12.5 ± 0.8 | – | 646 ± 41 | 37.7 ± 3.1 | 0.02 | 8.0 ± 1.3 | – | – | 254 | – | – | – | – | –
COc1cc(F)c(F)cc1C(=O)NCCCCCCCCNc1c2c(nc3ccccc13)CCCC2 [8c] | 54.1 ± 4.3 | 15.1 ± 1.2 | – | 142 ± 11 | 31.7 ± 2.4 | 0.02 | 19.8 ± 3.1 | – | – | – | 0.0187 ± 0.0013 | 17.7 ± 0.7 | 0.0998 ± 0.0058 | 53.6 ± 2.5 | –
COc1ccccc1C(=O)NCCCCCCCCNc1c2c(nc3ccccc13)CCCC2 [6c] | 55.6 ± 4.4 | 14.1 ± 0.9 | 3810 ± 70 | 150 ± 11 | 47.5 ± 3.2 | – | 10.6 ± 1.2 | – | – | – | 0.0314 ± 0.0025 | 18.8 ± 1.1 | 0.213 ± 0.012 | 104 ± 4 | –
Nc1c2c(nc3ccccc13)CCCC2 [Tacrine, reference compound] | – | – | 3780 ± 150 | – | – | – | – | – | – | – | – | – | – | – | 5.9 ± 0.5
